Data taken from US20200187502A1, “MICROBIOCIDAL OXADIAZOLE DERIVATIVES” (SYNGENTA PARTICIPATIONS AG, priority 2017, published 2020).

How the values were obtained:
Phakopsora pachyrhizi = assay: Fungicidal activity, soybean leaf disc preventative (Asian soybean rust); format: in vivo; conditions: foliar, 200 ppm in the applied formulation, soybean leaf disks, compared to untreated control, 12 to 14 days after application, read-out: disease control
Protocol: Leaf disks or leaf segments of various plant species are cut from plants grown in a greenhouse. The cut leaf disks or segments are placed in multiwell plates (24-well format) onto water agar. The leaf disks are sprayed with a test solution before (preventative) or after (curative) inoculation. Compounds to be tested are prepared as DMSO solutions (max. 10 mg/ml) which are diluted to the appropriate concentration with 0.025% Tween20 just before spraying. The inoculated leaf disks or segments are incubated under defined conditions (temperature, relative humidity, light, etc.) according to the respective test system. A single evaluation of disease level is carried out 3 to 14 days after inoculation, depending on the pathosystem. Percent disease control relative to the untreated check leaf disks or segments is then calculated.
Soybean leaf disks are placed on water agar in multiwell plates (24-well format) and sprayed with the formulated test compound diluted in water. One day after application leaf discs are inoculated by spraying a spore suspension on the lower leaf surface. After an incubation period in a climate cabinet of 24-36 hours in darkness at 20° C. and 75% rh leaf disc are kept at 20° C. with 12 h light/day and 75% rh. The activity of a compound is assessed as percent disease control compared to untreated when an appropriate level of disease damage appears in untreated check leaf disks (12 to 14 days after application).
The following compounds at 200 ppm in the applied formulation give at least 80% disease control in this test when compared to untreated control leaf disks under the same conditions, which show extensive disease development.

[1] = system: Glomerella lacenarium (Colletotrichum lacenarium); assay: Fungicidal activity, liquid culture, cucumber preventative (anthracnose); format: cell-based; conditions: 20 ppm in the applied formulation, liquid culture in PDB, inhibition of growth measured photometrically 3 to 4 days after application, compared to untreated control, read-out: disease control
Procedure, shortened: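 Photometric read-out of fungal growth 3 to 4 days after application, expressed as percent control relative to untreated wells. Plates held at 24 °C. Compound placed in DMSO before adding PDB broth seeded with conidia from cryogenic storage.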

[2] = system: Puccinia recondita f. Sp. Tritici; assay: Fungicidal activity, wheat leaf disc curative (brown rust); format: in vivo; conditions: foliar, 200 ppm in the applied formulation, wheat leaf segments cv. Kanzler, curative (applied 1 day after inoculation), compared to untreated control, 6 to 8 days after application, read-out: disease control
Procedure, shortened: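 Compound applied 1 day after spore inoculation of wheat cv. Kanzler leaf segments on agar (dark, 19 °C, 75% RH before treatment). After further incubation under 12 h light/12 h dark at 19 °C and 75% RH, disease control relative to untreated segments rated 6–8 days post-application.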

[3] = system: Puccinia recondita f. Sp. Tritici; assay: Fungicidal activity, wheat leaf disc preventative (brown rust); format: in vivo; conditions: foliar, 200 ppm in the applied formulation, wheat leaf segments cv. Kanzler, compared to untreated control, 7 to 9 days after application, read-out: disease control
Procedure, shortened: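 Preventative leaf-segment test: spray application of diluted formulated compound on wheat cv. Kanzler, spore inoculation after 1 day. Percent control relative to untreated segments rated 7 to 9 days post-application, with incubation at 19° C, 75% relative humidity, 12 h photoperiod.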

CON(Cc1ccc(-c2noc(C(F)(F)F)n2)s1)C(=O)C1(C)CC1 [Compound 1.15, N-methoxy-1-methyl-N-[[5-[5-(trifluoromethyl)-1,2,4-oxadiazol-3-yl]-2-thienyl]methyl]cyclopropanecarboxamide]
≥ 80%: pest or weed control at 200 ppm (Phakopsora pachyrhizi) | inhibition of growth at 20 ppm [1] | pest or weed control at 200 ppm [2] | pest or weed control at 200 ppm [3]

CON(Cc1ccc(-c2noc(C(F)(F)F)n2)s1)C(=O)C1(C)COC1 [Compound 1.16, N-methoxy-3-methyl-N-[[5-[5-(trifluoromethyl)-1,2,4-oxadiazol-3-yl]-2-thienyl]methyl]oxetane-3-carboxamide]
≥ 80%: pest or weed control at 200 ppm (Phakopsora pachyrhizi) | inhibition of growth at 20 ppm [1] | pest or weed control at 200 ppm [2] | pest or weed control at 200 ppm [3]

CON(Cc1ccc(-c2noc(C(F)(F)F)n2)s1)C(=O)C1CCCO1 (stereo not shown) [Compound 1.17, N-methoxy-N-[[5-[5-(trifluoromethyl)-1,2,4-oxadiazol-3-yl]-2-thienyl]methyl]tetrahydrofuran-2-carboxamide]
≥ 80%: pest or weed control at 200 ppm (Phakopsora pachyrhizi) | inhibition of growth at 20 ppm [1] | pest or weed control at 200 ppm [2] | pest or weed control at 200 ppm [3]

CON(Cc1ccc(-c2noc(C(F)(F)F)n2)s1)C(=O)CC(F)(F)F [Compound 1.18, 3,3,3-trifluoro-N-methoxy-N-[[5-[5-(trifluoromethyl)-1,2,4-oxadiazol-3-yl]-2-thienyl]methyl]propanamide]
≥ 80%: pest or weed control at 200 ppm (Phakopsora pachyrhizi) | inhibition of growth at 20 ppm [1] | pest or weed control at 200 ppm [2] | pest or weed control at 200 ppm [3]

CCC(C)C(=O)N(Cc1ccc(-c2noc(C(F)(F)F)n2)s1)OC (stereo not shown) [Compound 1.19, N-methoxy-2-methyl-N-[[5-[5-(trifluoromethyl)-1,2,4-oxadiazol-3-yl]-2-thienyl]methyl]butanamide]
≥ 80%: pest or weed control at 200 ppm (Phakopsora pachyrhizi) | inhibition of growth at 20 ppm [1] | pest or weed control at 200 ppm [2] | pest or weed control at 200 ppm [3]

CCCC(=O)N(Cc1ccc(-c2noc(C(F)(F)F)n2)s1)OC [Compound 1.21, N-methoxy-N-[[5-[5-(trifluoromethyl)-1,2,4-oxadiazol-3-yl]-2-thienyl]methyl]butanamide]
≥ 80%: pest or weed control at 200 ppm (Phakopsora pachyrhizi) | inhibition of growth at 20 ppm [1] | pest or weed control at 200 ppm [2] | pest or weed control at 200 ppm [3]

CON(Cc1ccc(-c2noc(C(F)(F)F)n2)s1)C(=O)CC1CC1 [Compound 1.22, 2-cyclopropyl-N-methoxy-N-[[5-[5-(trifluoromethyl)-1,2,4-oxadiazol-3-yl]-2-thienyl]methyl]acetamide]
≥ 80%: pest or weed control at 200 ppm (Phakopsora pachyrhizi) | inhibition of growth at 20 ppm [1] | pest or weed control at 200 ppm [2] | pest or weed control at 200 ppm [3]

COCCCC(=O)N(Cc1ccc(-c2noc(C(F)(F)F)n2)s1)OC [Compound 1.23, N,4-dimethoxy-N-[[5-[5-(trifluoromethyl)-1,2,4-oxadiazol-3-yl]-2-thienyl]methyl]butanamide]
≥ 80%: pest or weed control at 200 ppm (Phakopsora pachyrhizi) | inhibition of growth at 20 ppm [1] | pest or weed control at 200 ppm [2] | pest or weed control at 200 ppm [3]

CON(Cc1ccc(-c2noc(C(F)(F)F)n2)s1)C(=O)C(N)=O [Compound 1.24, N′-methoxy-N′-[[5-[5-(trifluoromethyl)-1,2,4-oxadiazol-3-yl]-2-thienyl]methyl]oxamide]
≥ 80%: pest or weed control at 200 ppm (Phakopsora pachyrhizi) | inhibition of growth at 20 ppm [1] | pest or weed control at 200 ppm [2] | pest or weed control at 200 ppm [3]

CON(Cc1ccc(-c2noc(C(F)(F)F)n2)s1)C(C)=O [Compound 1.25, N-methoxy-N-[[5-[5-(trifluoromethyl)-1,2,4-oxadiazol-3-yl]-2-thienyl]methyl]acetamide]
≥ 80%: pest or weed control at 200 ppm (Phakopsora pachyrhizi) | inhibition of growth at 20 ppm [1] | pest or weed control at 200 ppm [2] | pest or weed control at 200 ppm [3]

CON(C(=O)C1CC1)C(C)c1ccc(-c2noc(C(F)(F)F)n2)s1 (stereo not shown) [Compound 1.48, N-methoxy-N-[1-[5-[5-(trifluoromethyl)-1,2,4-oxadiazol-3-yl]-2-thienyl]ethyl]cyclopropanecarboxamide]
≥ 80%: pest or weed control at 200 ppm (Phakopsora pachyrhizi) | inhibition of growth at 20 ppm [1] | pest or weed control at 200 ppm [2] | pest or weed control at 200 ppm [3]

CCNC(=O)N(Cc1ccc(-c2noc(C(F)(F)F)n2)s1)OC [Compound 1.51, 3-ethyl-1-methoxy-1-[[5-[5-(trifluoromethyl)-1,2,4-oxadiazol-3-yl]-2-thienyl]methyl]urea]
≥ 80%: pest or weed control at 200 ppm (Phakopsora pachyrhizi) | inhibition of growth at 20 ppm [1] | pest or weed control at 200 ppm [2] | pest or weed control at 200 ppm [3]

C=CCN(C)C(=O)N(Cc1ccc(-c2noc(C(F)(F)F)n2)s1)OC [Compound 1.52, 1-allyl-3-methoxy-1-methyl-3-[[5-[5-(trifluoromethyl)-1,2,4-oxadiazol-3-yl]-2-thienyl]methyl]urea]
≥ 80%: pest or weed control at 200 ppm (Phakopsora pachyrhizi) | inhibition of growth at 20 ppm [1] | pest or weed control at 200 ppm [2] | pest or weed control at 200 ppm [3]

COCCNC(=O)N(Cc1ccc(-c2noc(C(F)(F)F)n2)s1)OC [Compound 1.53, 1-methoxy-3-(2-methoxyethyl)-1-[[5-[5-(trifluoromethyl)-1,2,4-oxadiazol-3-yl]-2-thienyl]methyl]urea]
≥ 80%: pest or weed control at 200 ppm (Phakopsora pachyrhizi) | inhibition of growth at 20 ppm [1] | pest or weed control at 200 ppm [2] | pest or weed control at 200 ppm [3]

CCN(CC)C(=O)N(Cc1ccc(-c2noc(C(F)(F)F)n2)s1)OC [Compound 1.54, 1,1-diethyl-3-methoxy-3-[[5-[5-(trifluoromethyl)-1,2,4-oxadiazol-3-yl]-2-thienyl]methyl]urea]
≥ 80%: pest or weed control at 200 ppm (Phakopsora pachyrhizi) | inhibition of growth at 20 ppm [1] | pest or weed control at 200 ppm [2] | pest or weed control at 200 ppm [3]

CON(Cc1ccc(-c2noc(C(F)(F)F)n2)s1)C(=O)N1CCC2(CC2)C1 [Compound 1.58, N-methoxy-N-[[5-[5-(trifluoromethyl)-1,2,4-oxadiazol-3-yl]-2-thienyl]methyl]-5-azaspiro[2.4]heptane-5-carboxamide]
≥ 80%: pest or weed control at 200 ppm (Phakopsora pachyrhizi) | inhibition of growth at 20 ppm [1] | pest or weed control at 200 ppm [2] | pest or weed control at 200 ppm [3]

CC(C)(C)OC(=O)NCc1ccc(-c2noc(C(F)(F)F)n2)s1 [Compound 2.1, tert-butyl N-[[5-[5-(trifluoromethyl)-1,2,4-oxadiazol-3-yl]-2-thienyl]methyl]carbamate]
≥ 80%: pest or weed control at 200 ppm (Phakopsora pachyrhizi) | inhibition of growth at 20 ppm [1] | pest or weed control at 200 ppm [2] | pest or weed control at 200 ppm [3]

COCC(=O)NCc1ccc(-c2noc(C(F)(F)F)n2)s1 [Compound 2.3, 2-methoxy-N-[[5-[5-(trifluoromethyl)-1,2,4-oxadiazol-3-yl]-2-thienyl]methyl]acetamide]
≥ 80%: pest or weed control at 200 ppm (Phakopsora pachyrhizi) | inhibition of growth at 20 ppm [1] | pest or weed control at 200 ppm [2] | pest or weed control at 200 ppm [3]

COCCC(=O)NCc1ccc(-c2noc(C(F)(F)F)n2)s1 [Compound 2.4, 3-methoxy-N-[[5-[5-(trifluoromethyl)-1,2,4-oxadiazol-3-yl]-2-thienyl]methyl]propanamide]
≥ 80%: pest or weed control at 200 ppm (Phakopsora pachyrhizi) | inhibition of growth at 20 ppm [1] | pest or weed control at 200 ppm [2] | pest or weed control at 200 ppm [3]

CCC(=O)NCc1ccc(-c2noc(C(F)(F)F)n2)s1 [Compound 2.5, N-[[5-[5-(trifluoromethyl)-1,2,4-oxadiazol-3-yl]-2-thienyl]methyl]propanamide]
≥ 80%: pest or weed control at 200 ppm (Phakopsora pachyrhizi) | inhibition of growth at 20 ppm [1] | pest or weed control at 200 ppm [2] | pest or weed control at 200 ppm [3]

COC(C)C(=O)NCc1ccc(-c2noc(C(F)(F)F)n2)s1 (stereo not shown) [Compound 2.6, 2-methoxy-N-[[5-[5-(trifluoromethyl)-1,2,4-oxadiazol-3-yl]-2-thienyl]methyl]propanamide]
≥ 80%: pest or weed control at 200 ppm (Phakopsora pachyrhizi) | inhibition of growth at 20 ppm [1] | pest or weed control at 200 ppm [2] | pest or weed control at 200 ppm [3]

CCC(C)C(=O)NCc1ccc(-c2noc(C(F)(F)F)n2)s1 (stereo not shown) [Compound 2.7, 2-methyl-N-[[5-[5-(trifluoromethyl)-1,2,4-oxadiazol-3-yl]-2-thienyl]methyl]butanamide]
≥ 80%: pest or weed control at 200 ppm (Phakopsora pachyrhizi) | inhibition of growth at 20 ppm [1] | pest or weed control at 200 ppm [2] | pest or weed control at 200 ppm [3]
